Data on three compounds can be found in PMC10315472 (Frontiers in Microbiology, 2023).

Data set [1] has as its target T1, WT RBD (Severe acute respiratory syndrome coronavirus 2, UniProt P0DTC2). Put plainly: biochemical. The format is binding, SARS-CoV-2.
The conditions of data set [2]: covalently immobilized onto CM5 via amine groups.
In data set [3] the target is T1, WT RBD. Briefly: biochemical. The format is binding, SARS-CoV-2. The source holds these as a separate data set.

Like-named read-outs stand apart in the source and are kept apart here. Positions of bridges follow the written chain, without caps; N, C: chain ends. Residues, ends and D or L forms follow the SMILES beside them.

As to `CC[C@H](C)[C@@H]1NC(=O)[C@H](CCCCN)NC(=O)CNC(=O)[C@H](CCCNC(=N)N)NC(=O)[C@@H]2CSSC[C@H](N)C(=O)N3CCC[C@H]3C(=O)N[C@@H](Cc3c[nH]c4ccccc34)C(=O)N[C@@H](CC(N)=O)C(=O)N[C@@H](C)C(=O)N[C@@H](Cc3ccc(O)cc3)C(=O)N[C@@H](CCC(=O)O)C(=O)N[C@H]3CSSC[C@H](NC(=O)[C@H]([C@@H](C)O)NC(=O)[C@H](CCC(N)=O)NC(=O)[C@H](CCCNC(=N)N)NC1=O)C(=O)N[C@@H](Cc1c[nH]cn1)C(=O)N[C@H](C(=O)N[C@@H](Cc1ccc(O)cc1)C(=O)O)CSSC[C@H](NC(=O)[C@H](Cc1c[nH]cn1)NC(=O)[C@H](CCCNC(=N)N)NC(=O)[C@H](CC(=O)O)NC3=O)C(=O)N[C@@H](C(C)C)C(=O)N[C@@H](CO)C(=O)N[C@@H](CCCCN)C(=O)NCC(=O)N[C@@H](Cc1ccc(O)cc1)C(=O)N[C@@H]([C@@H](C)O)C(=O)NCC(=O)NCC(=O)N[C@@H](CC(N)=O)C(=O)N2` [(ΔGFG)AMSIN] (H-CPWNAYECDRHCVSKGYTGGNCRGKIRQTCHCY-OH; disulfide 1-22, 8-30, 12-32), the affinity at WT RBD [1], expressed as Kd, was 0.119 µM.
Consider `CC[C@H](C)[C@@H]1NC(=O)[C@H](CCCCN)NC(=O)CNC(=O)[C@H](CCCNC(=N)N)NC(=O)[C@@H]2CSSC[C@H](NC(=O)CNC(=O)[C@H](Cc3ccccc3)NC(=O)CN)C(=O)N3CCC[C@H]3C(=O)N[C@@H](Cc3c[nH]c4ccccc34)C(=O)N[C@@H](CC(N)=O)C(=O)N[C@@H](C)C(=O)N[C@@H](Cc3ccc(O)cc3)C(=O)N[C@@H](CCC(=O)O)C(=O)N[C@H]3CSSC[C@H](NC(=O)[C@H]([C@@H](C)O)NC(=O)[C@H](CCC(N)=O)NC(=O)[C@H](CCCNC(=N)N)NC1=O)C(=O)N[C@@H](Cc1c[nH]cn1)C(=O)N[C@H](C(=O)N[C@@H](Cc1ccc(O)cc1)C(=O)O)CSSC[C@H](NC(=O)[C@H](Cc1c[nH]cn1)NC(=O)[C@H](CCCNC(=N)N)NC(=O)[C@H](CC(=O)O)NC3=O)C(=O)N[C@@H](C(C)C)C(=O)N[C@@H](CO)C(=O)N[C@@H](CCCCN)C(=O)NCC(=O)N[C@@H](Cc1ccc(O)cc1)C(=O)N[C@@H]([C@@H](C)O)C(=O)NCC(=O)NCC(=O)N[C@@H](CC(N)=O)C(=O)N2` [AMSIN] (H-GFGCPWNAYECDRHCVSKGYTGGNCRGKIRQTCHCY-OH; disulfide 4-25, 11-33, 15-35), for which, in data set [2], the “stability on CM5 chip” value is “rather stable”. Besides, on WT RBD [3], binding was characterised by a dissociation constant (Kd) of 0.193 µM; the off-rate constant (koff) (in general, the rate constant with which the complex falls apart) came to 0.00219 s⁻¹; the on-rate (kon) (usually the second-order rate constant of association) was 11300 M⁻¹ s⁻¹.
For `CC[C@H](C)[C@@H]1NC(=O)CNC(=O)[C@H](CCCCN)NC(=O)[C@@H]2CSSC[C@@H](C(=O)N[C@@H](Cc3ccc(O)cc3)C(=O)O)NC(=O)[C@H](CCCCN)NC(=O)[C@@H]3CSSC[C@H](NC(=O)[C@H](CCCNC(=N)N)NC(=O)[C@H](CO)NC(=O)[C@H](CC(=O)O)NC(=O)[C@H](CC(N)=O)NC(=O)CNC(=O)CNC(=O)[C@H](Cc4ccccc4)NC(=O)[C@H]([C@@H](C)CC)NC(=O)[C@H]([C@@H](C)O)NC(=O)[C@@H](NC(=O)CNC(=O)[C@H](Cc4c[nH]c5ccccc45)NC(=O)CN)CSSC[C@H](NC(=O)[C@H](Cc4ccc(O)cc4)NC(=O)CNC(=O)CNC(=O)[C@H](CCCNC(=N)N)NC(=O)[C@H](Cc4ccc(O)cc4)NC(=O)CNC(=O)[C@H](CCCNC(=N)N)NC1=O)C(=O)N[C@@H](CCCCN)C(=O)N[C@@H](CC(C)C)C(=O)NCC(=O)NCC(=O)N[C@@H]([C@@H](C)CC)C(=O)N3)C(=O)N[C@@H](Cc1c[nH]cn1)C(=O)N[C@@H](CCCNC(=N)N)C(=O)N[C@@H](Cc1c[nH]cn1)C(=O)N2` [Emorisin] (H-GWGCTIFGGNDSRCHRHCKGIRGYRGGYCKLGGICKCY-OH; disulfide 4-29, 14-35, 18-37), on WT RBD [3], the dissociation constant Kd (in general, the constant that tells how readily two partners part at equilibrium) is 0.0076 µM; the off-rate (koff) came to 0.045 s⁻¹; the association rate constant (kon) stood at 5.92e+06 M⁻¹ s⁻¹.
